# Assay results: ChEMBL document CHEMBL4350971, “Discovery of tropinone-thiazole derivatives as potent caspase 3/7 activators, and noncompetitive tyrosinase inhibitors with high antiproliferative activity: Rational design, one-pot tricomponent synthesis, and lipophilicity determination” (Eur J Med Chem, 2019)
# Activity calls are given as the source filed them. No cut-off for these calls is given here.
# B1: Tyrosinase (Agaricus bisporus), O42713 (protein)
# chain: MSLIATVGPTGGVKNRLNIVDFVKNEKFFTLYVRSLELLQAKEQHDYSSFFQLAGIHGLPFTEWAKERPSMNLYKAGYCTHGQVLFPTWHRTYLSVLEQILQGAAIEVAKKFTSNQTDWVQAAQDLRQPYWDWGFELMPPDEVIKNEEVNITNYDGKKISVKNPILRYHFHPIDPSFKPYGDFATWRTTVRNPDRNRREDIPGLIKKMRLEEGQIREKTYNMLKFNDAWERFSNHGISDDQHANSLESVHDDIHVMVGYGKIEGHMDHPFFAAFDPIFWLHHTNVDRLLSLWKAINPDVWVTSGRNRDGTMGIAPNAQINSETPLEPFYQSGDKVWTSASLADTARLGYSYPDFDKLVGGTKELIRDAIDDLIDERYGSKPSSGARNTAFDLLADFKGITKEHKEDLKMYDWTIHVAFKKFELKESFSLLFYFASDGGDYDQENCFVGSINAFRGTAPETCANCQDNENLIQEGFIHLNHYLARDLESFEPQDVHKFLKEKGLSYKLYSRGDKPLTSLSVKIEGRPLHLPPGEHRPKYDHTQARVVFDDVAVHVIN
# Tests used:
# MV4-11 = assay: Antiproliferative activity against human MV4-11 cells incubated for 72 hrs by MTT assay; assay type: functional, cell-based; conditions: MV4-11, 72 h
# A549 [1] = assay: Antiproliferative activity against human A549 cells incubated for 72 hrs by SRB assay; assay type: functional, cell-based; conditions: A549, 72 h
# MCF7 [2] = assay: Antiproliferative activity against human MCF7 cells incubated for 72 hrs by SRB assay; assay type: functional, cell-based; conditions: MCF7, 72 h
# B16-F10 = assay: Antiproliferative activity against mouse B16F10 cells incubated for 72 hrs by MTT assay; assay type: functional, cell-based; conditions: B16-F10, 72 h
# BALB/3T3 = assay: Antiproliferative activity against mouse BALB/3T3 cells incubated for 72 hrs by SRB assay; assay type: cell-based; conditions: BALB/3T3, 72 h
# A549 [3] = assay: Induction of apoptosis in human A549 cells assessed as fold increase in caspase 3/7 activation using Ac-DEVD-ACC as fluorogenic substrate at 5 ug/ml incubated for 72 hrs by fluorescence assay relative to control; assay type: functional
# Tyrosinase = target: T1, Tyrosinase (Agaricus bisporus, UniProt O42713); assay: Inhibition of mushroom tyrosinase using L-dopa as substrate incubated for 30 mins by spectrophotometric method
# T1 sequence (O42713 whole entry): B1 chain
# [4] = Lipophilicity, chromatographic lipophilicity index of the compound in methanol by UPLC-MS/MS; assay type: physicochemical
# A549 [5] = assay: Potency index, ratio of chlorambucil to ratio of test compound for induction of apoptosis in human A549 cells; assay type: functional
# HL-60 = assay: Antiproliferative activity against human HL60 cells incubated for 48 hrs by MTS assay; assay type: functional, cell-based; conditions: HL-60, 48 h
# MCF7 [6] = assay: Antiproliferative activity against human MCF7 cells reduction in cell viability; assay type: functional, cell-based
# A549 [7] = assay: Potency index, ratio of camptothecin to ratio of test compound for induction of apoptosis in human A549 cells; assay type: functional
# [8] = target: T2, Tyrosinase (Agaricus bisporus) (UniProt O42713); assay: Ratio of IC50 for kojic acid to IC50 for test compound for inhibition of mushroom tyrosinase using L-dopa as substrate incubated for 30 mins by spectrophotometric method
# T2 sequence (whole entry): B1 chain
# [9] = target: T2, Tyrosinase (Agaricus bisporus); assay: Ratio of IC50 for ascorbic acid to IC50 for test compound for inhibition of mushroom tyrosinase using L-dopa as substrate incubated for 30 mins by spectrophotometric method
# [10] = target: T2, Tyrosinase (Agaricus bisporus); assay: Inhibition of mushroom tyrosinase assessed as reduction in peak intensity at 15 mM using L-dopa as substrate incubated for 30 mins by UV-vis spectra analysis
# HCT-116 = assay: Antiproliferative activity against human HCT116 cells by MTT assay; assay type: functional, cell-based
# MCF7 [11] = assay: Antiproliferative activity against human MCF7 cells reduction in cell viability relative to control; assay type: functional
# [12] = target: T2, Tyrosinase (Agaricus bisporus); assay: Inhibition of mushroom tyrosinase assessed as reduction in peak intensity at 25 mM using L-dopa as substrate incubated for 30 mins by UV-vis spectra analysis
# [13] = compound: CN1[C@@H]2CC[C@H]1C/C(=N/Nc1nc(-c3ccc(Br)cc3)cs1)C2; assay: (§1) Noncompetitive-inhibition of mushroom tyrosinase assessed as Vmax at 0.1 to 0.25 mM using 0.1 to 0.25 mM L-dopa as substrate incubated for 20 mins by Lineweaver-Burk double reciprocal plot analysis; conditions: Agaricus bisporus
# [14] = compound: CN1[C@@H]2CC[C@H]1C/C(=N/Nc1nc(-c3ccc(C(F)(F)F)cc3)cs1)C2; assay: as §1; conditions: Agaricus bisporus
# [15] = compound: CN1[C@@H]2CC[C@H]1C/C(=N/Nc1nc(-c3ccc(Cl)c(Cl)c3)cs1)C2; assay: as §1; conditions: Agaricus bisporus
# [16] = compound: CN1[C@@H]2CC[C@H]1C/C(=N/Nc1nc(-c3ccc(Cl)cc3)cs1)C2; assay: as §1; conditions: Agaricus bisporus
# [17] = compound: CN1[C@@H]2CC[C@H]1C/C(=N/Nc1nc(-c3ccc(Cl)cc3Cl)cs1)C2; assay: as §1; conditions: Agaricus bisporus
# [18] = compound: CN1[C@@H]2CC[C@H]1C/C(=N/Nc1nc(-c3ccc(F)cc3)cs1)C2; assay: as §1; conditions: Agaricus bisporus
# [19] = compound: CN1[C@@H]2CC[C@H]1C/C(=N/Nc1nc(-c3ccc(N=[N+]=[N-])cc3)cs1)C2; assay: as §1; conditions: Agaricus bisporus
# [20] = compound: Cc1ccc(-c2csc(N/N=C3\C[C@H]4CC[C@@H](C3)N4C)n2)cc1; assay: as §1; conditions: Agaricus bisporus
# [21] = compound: CN1[C@@H]2CC[C@H]1C/C(=N/Nc1nc(-c3ccc(Br)cc3)cs1)C2; assay: (§2) Noncompetitive-inhibition of mushroom tyrosinase assessed as Km at 0.1 to 0.25 mM using 0.1 to 0.25 mM L-dopa as substrate incubated for 20 mins by Lineweaver-Burk double reciprocal plot analysis; conditions: Agaricus bisporus
# [22] = compound: CN1[C@@H]2CC[C@H]1C/C(=N/Nc1nc(-c3ccc(Cl)c(Cl)c3)cs1)C2; assay: as §2; conditions: Agaricus bisporus
# [23] = compound: CN1[C@@H]2CC[C@H]1C/C(=N/Nc1nc(-c3ccc(Cl)cc3)cs1)C2; assay: as §2; conditions: Agaricus bisporus
# [24] = compound: CN1[C@@H]2CC[C@H]1C/C(=N/Nc1nc(-c3ccc(Cl)cc3Cl)cs1)C2; assay: as §2; conditions: Agaricus bisporus
# [25] = compound: CN1[C@@H]2CC[C@H]1C/C(=N/Nc1nc(-c3ccc(N=[N+]=[N-])cc3)cs1)C2; assay: as §2; conditions: Agaricus bisporus
Molecule,IC50 (MV4-11) [µM],IC50 (A549 [1]) [µM],IC50 (MCF7 [2]) [µM],IC50 (B16-F10) [µM],IC50 (BALB/3T3) [µM],IC50 (Tyrosinase) [µM],logKw [4],other results
Cc1ccc(-c2csc(N/N=C3\C[C@H]4CC[C@@H](C3)N4C)n2)cc1,10.1,17.3,11.1,10.6,10.2,101,-2.654,Activity (A549 [3]): inactive
CN1[C@@H]2CC[C@H]1C/C(=N/Nc1nc(-c3ccc(F)cc3)cs1)C2,13.7,42.8,19.2,> 15.1,19.1,123,-3.058,Activity (A549 [3]): inactive
CN1[C@@H]2CC[C@H]1C/C(=N/Nc1nc(-c3ccc(C(F)(F)F)cc3)cs1)C2,6.68,7.54,6.02,5.86,8.41,33.7,-3.25,fold change (FC) (A549 [3]): 3 - 5; Ratio (A549 [5]): 3 - 5
CN1[C@@H]2CC[C@H]1/C(=C\c1cccc(Br)c1)C(=O)/C2=C/c1cccc(Br)c1,–,–,–,–,–,–,–,IC50 (HL-60): 3.39 µM; IC50 (MCF7 [6]): 13.1 µM
CN1[C@@H]2CC[C@H]1C/C(=N/Nc1nc(-c3ccc(Br)cc3)cs1)C2,8.36,8.15,7.67,5.44,8.18,85,-3.066,fold change (FC) (A549 [3]): 3 - 5; Ratio (A549 [5]): 3 - 5
ClCCN(CCCl)c1ccc(/C=N/Nc2nc(-c3ccc(Br)cc3)cs2)cc1,1.27,–,–,–,–,–,–,–
CN1[C@@H]2CC[C@H]1C/C(=N/Nc1nc(-c3ccc(Cl)c(Cl)c3)cs1)C2,8.29,7.89,7.19,5.43,8.58,3.22,-4.024,fold change (FC) (A549 [3]): 25; Ratio (A549 [7]): 2; Ratio (A549 [5]): 18; Ratio IC50 [8]: 22; Ratio IC50 [9]: 120; inhibition [10]: Active
CN1[C@@H]2CC[C@H]1C/C(=N/Nc1nc(-c3ccc(N=[N+]=[N-])cc3)cs1)C2,9.87,11,8.94,5.91,9.05,72.3,-3.151,Activity (A549 [3]): inactive
CCN1[C@@H]2CC[C@H]1/C(=C\c1ccc(OC)c(OC)c1)C(=O)/C2=C/c1ccc(OC)c(OC)c1,–,–,–,–,–,–,–,IC50 (HCT-116): 0.01 µM
CN1[C@@H]2CC[C@H]1C/C(=N/Nc1nc(-c3ccc(Cl)cc3)cs1)C2,9.37,9.48,9.08,> 14.4,9.2,133,-2.844,Activity (A549 [3]): inactive
CN1[C@@H]2CC[C@H]1CC(=O)C2,–,–,–,–,–,–,–,inhibition (INH) (MCF7 [11]): 26.98%
CN1[C@@H]2CC[C@H]1C/C(=N/Nc1nc(-c3ccc(Cl)cc3Cl)cs1)C2,6.82,7.47,7.05,5.48,8.16,3.51,-3.79,fold change (FC) (A549 [3]): 3 - 5; Ratio (A549 [5]): 3 - 5; Ratio IC50 [8]: 22; Ratio IC50 [9]: 120; inhibition [12]: Active
C/C(=N\Nc1nc(-c2ccc(Cl)c(Cl)c2)cs1)c1ccc(Nc2nc(N)nc(N)n2)cc1,3.56,–,–,–,–,–,–,IC50 (MCF7 [6]): 7.59 µM
O=C(O)CCCc1ccc(N(CCCl)CCCl)cc1 [CHLORAMBUCIL],8.55,72.8,69.3,12.6,69.7,–,–,–
B1,–,–,–,–,–,–,–,Vmax [13]: 2.53 abs/min; Vmax [14]: -12.8 abs/min; Vmax [15]: 5.59 abs/min; Vmax [16]: 6.24 abs/min; Vmax [17]: 0.0126 abs/min; Vmax [18]: -1.58 abs/min; Vmax [19]: 5.05 abs/min; Vmax [20]: -16.5 abs/min; Km [21]: 184 µM; Km [22]: 180 µM; Km [23]: 360 µM; Km [24]: 0.278 µM; Km [25]: 466 µM
